{"source": "patent US9249184B2", "about": "“Cardiac-specific protein targeting domain” (University of Pittsburgh—of the Commonwealth System of …, priority 2010, dated 2016)", "key": {"[1]": {"test_system": "human heart tissue", "assay": "Ex vivo transduction of human explanted heart slices (confocal microscopy)", "settings": "separate explanted heart; 500 ul of 1 mM solution; 30 mins at 37° C.", "procedure": "Human explanted hearts were obtained from the operating rooms of UPMC at the time of ongoing heart transplants. Heart tissue was dissected from the proximal part or the base of the heart to avoid the more scarred, infarcted, distal tissue. Small 1-2 mm thick slices of heart tissue were taken and incubated with CTP-6CF (500 ul of a 1 mM solution) or PBS, for 30 and 60 mins, at 37° C./5% CO2. At the end of the incubation period, the heart slices were washed in PBS 6 times, fixed in 2% paraformaldehyde for 4 hrs at room temperature, followed by 30% sucrose overnight at 4° C. Next day the tissue was frozen in liquid nitrogen-chilled isopentane and stored 58\nat −80° C., for later cryosectioning, cross-staining with DRAQ5 and confocal microscopy. Confocal micrographs were obtained avoiding the edges because of the necessary damage associated with dissecting the heart tissue pieces. Confocal micrographs were taken 3-4 cell layers away from any edges.\nTo investigate if this transduction was indeed peptide specific, and not secondary to increased membrane leakiness resulting from tissue being ischemic, we incubated thin, 1-2 mm thick, heart slices, from a separate explanted heart, in only 6CF in PBS, CTP-6CF, RAN-6CF as well as 6CF labeled 6-Arginine, a known PTD. We also incubated heart slices with Evans blue dye (EBD) to assess for membrane leakiness. […]"}, "[2]": {"settings": "in vitro phage display; cited from earlier work"}, "[3]": {"settings": "in vitro phage display; cited from earlier work", "remark": "listed apart in the source"}, "[4]": {"test_system": "heart, liver, lung, spleen, kidney, skeletal muscle and brain", "assay": "In vivo tissue transduction by biotinylated peptides coupled to Streptavidin-Alexa488 (confocal microscopy)", "parameters": "species or system Balb/c mice", "settings": "10 mg/Kg i.v.; 30 minutes post-injection", "procedure": "In vivo imaging studies. The initial in vivo targeting studies were performed using CTP-6CF. Female Balb/C mice were injected retro-orbitally with CTP-6CF (25 mg/Kg) and euthanized 15 minutes later, Heart cross-sections were stained for actin using phalloidin Alexa-647 (Molecular Probes, A22287) and stained for laminin using a rabbit anti-laminin antibody followed by a goat anti-rabbit Cy3 (Jackson ImmunoResearch, 111-167-003) secondary antibody. Five non-overlapping sections were taken from each heart for quantification of green fluorescence (CTP-6CF) expressed as a percentage of total area (blue; stained for actin). A control peptide (CON; […]; SEQ ID NO:15), picked from the original, unselected M13 phage library, CTP and 8-Lysine (8K, a homopolymer of lysine), a known cationic protein transduction domain, were synthesized in a biotinylated form. 200 mM of biotinylated CTP, CON and 8K, or equivalent volume of PBS, were incubated with 10 ul of Streptavidin-Alexa488 (2 ng/ml; Molecular Probes, 532354) for 2 hours at room temperature. Female Balb/c mice were intravenously (retro-orbitally) injected with peptides at a dose of 10 mg/Kg and then euthanized 30 minutes post-injection. […] For confocal microscopy, laser intensities/gains were set using negative control (PBS injected) heart tissue to minimize background fluorescence. […]"}, "[5]": {"test_system": "myocardial infarct", "assay": "Murine infarct model (left artery ligation)", "type": "in vivo, Balb/c mice", "settings": "8K-NBD study; 5 mg/Kg/injection i.p. post-op day 0, 1, 2; day 7; vs PBS", "text": "The following protocol was used and kept consistent from one set of experiments to another and between groups. Female, Balb/c, 10-20 week old mice were used for these set of studies. Female mice were chosen because of the ability to house 5/cage, as opposed to male mice (4/cage) and more importantly because female mice are able to tolerate cardiac insults better with lower post-operative mortality (19). Mice were anesthetized with intraperitoneal (i.p.) injection of 2.5% Avertin (a mixture of 15.5 ml tert-amyl alcohol to 25 grams of 2-2-2 Tribromoethanol-stock solution diluted to 2.5% concentration with PBS) at a dose of 15 μl/gm of body weight. Adequate anesthetic level was assessed by lack of response to toe-pinch and lack of a gag reflex. Mice were intubated, using direct visualization of the vocal chords, with a 22 G cannula and placed on a Harvard rodent ventilator apparatus. Tube placement was confirmed by symmetric expansion of the thoracic cavity. Mice were ventilated with ˜0.1 cc/breath tidal volume at a rate of 110 breaths/minute. […]\nMice were euthanized on post-operative day 7. […] The three sections were H&E stained, light microscopy photographs taken, and area of infarct in each section mapped out using computer software Metamorph and expressed as a percent of the whole heart. […]"}, "[6]": {"test_system": "apoptosis in heart", "assay": "TUNEL staining of heart cross-sections in the murine infarct model", "type": "in vivo, Balb/c mice", "settings": "8K-NBD study; 5 mg/Kg/injection i.p. post-op day 0, 1, 2; day 7", "procedure": "A cross-section from each heart was taken and apoptosis assessed by TUNEL staining. The nuclei were stained with Dapi, and the number of TUNEL positive nuclei expressed as a percentage of total nuclei in each field. The whole heart cross-section was taken into consideration by taking 5-6 contiguous, non-overlapping sections from each heart. […] FIG. 18 illustrates the TUNEL staining data in a quantitative manner."}}, "note": "Ends that are not written are not given here."}
{"compound": "O=C(O)c1ccc2c(c1)C1(OC2=O)c2ccc(O)cc2Oc2cc(O)ccc21", "note": "[6CF, 6-carboxyfluorescene]", "values": [{"measurement": "uptake in human heart slices ex vivo (confocal microscopy)", "setting": "[1]", "value": "occasional cells showing fluorescence"}]}
{"compound": "APWHLSSQYSRT [CTP]", "values": [{"measurement": "affinity for binding to apatite-based, bone-like minerals", "setting": "[2]", "value": "high affinity"}, {"measurement": "affinity for binding to two specific sulfated carbohydrates", "setting": "[3]", "value": "high affinity"}]}
{"compound": "Cc1cc(-c2ccc(/N=N/c3ccc4c(S(=O)(=O)[O-])cc(S(=O)(=O)[O-])c(N)c4c3O)c(C)c2)ccc1/N=N/c1ccc2c(S(=O)(=O)[O-])cc(S(=O)(=O)[O-])c(N)c2c1O.[Na+].[Na+].[Na+].[Na+]", "note": "[EBD, Evans blue dye]", "values": [{"measurement": "uptake in human heart slices ex vivo (confocal microscopy)", "setting": "[1]", "value": "did not show any fluorescence"}]}
{"compound": "CON-SA488: biotinylated control peptide CON (ARPLEHGSDKAT) coupled to Streptavidin-Alexa488 (also: biotinylated, coupled to streptavidin-Alexa488)", "values": [{"measurement": "uptake in any organ", "setting": "[4]", "value": "did not show appreciable uptake"}]}
{"compound": "KKKKKKKK-TTLDASALQME (KKKKKKKKTTLDASALQME) [8K-mutNBD]", "values": [{"measurement": "heart-weight to body-weight ratio", "setting": "[5]", "value": "did not differ"}, {"measurement": "infarct size", "setting": "[5]", "value": "worse"}, {"measurement": "TUNEL positive (apoptotic) nuclei", "setting": "[6]", "value": "lesser number of apoptotic nuclei"}]}
